Where a name gives a salt, the structure may show the parent alone.
Target: T1, ABCB6 (ABCB6-flag) (Homo sapiens, UniProt Q9NP58)
T1 construct: wild-type ABCB6, C-terminal FLAG tag kept; stably expressed (CMV promoter) in K562 cells (whole cells, mitochondria)
T1 sequence (Q9NP58 1-842): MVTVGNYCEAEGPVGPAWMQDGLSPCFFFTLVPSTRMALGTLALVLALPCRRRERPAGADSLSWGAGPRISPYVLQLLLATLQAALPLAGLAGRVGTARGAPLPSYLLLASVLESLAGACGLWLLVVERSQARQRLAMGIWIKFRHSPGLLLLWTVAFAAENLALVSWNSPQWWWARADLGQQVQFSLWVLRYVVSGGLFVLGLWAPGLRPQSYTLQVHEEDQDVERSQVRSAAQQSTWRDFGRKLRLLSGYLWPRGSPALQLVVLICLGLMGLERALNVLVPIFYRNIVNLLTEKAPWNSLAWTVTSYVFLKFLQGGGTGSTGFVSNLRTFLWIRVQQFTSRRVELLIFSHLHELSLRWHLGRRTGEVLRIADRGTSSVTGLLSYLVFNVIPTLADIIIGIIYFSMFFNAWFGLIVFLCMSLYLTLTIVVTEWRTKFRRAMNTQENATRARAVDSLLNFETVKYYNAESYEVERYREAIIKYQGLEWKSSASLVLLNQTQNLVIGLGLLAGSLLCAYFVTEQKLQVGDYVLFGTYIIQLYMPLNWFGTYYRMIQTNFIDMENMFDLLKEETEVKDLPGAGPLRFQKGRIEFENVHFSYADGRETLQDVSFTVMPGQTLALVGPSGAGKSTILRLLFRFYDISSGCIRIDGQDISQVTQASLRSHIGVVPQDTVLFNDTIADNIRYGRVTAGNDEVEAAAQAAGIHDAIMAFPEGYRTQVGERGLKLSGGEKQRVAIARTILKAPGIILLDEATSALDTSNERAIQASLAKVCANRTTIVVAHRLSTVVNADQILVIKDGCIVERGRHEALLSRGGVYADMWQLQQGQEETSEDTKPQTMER
Test: displacement of ABCB6 from hemin-agarose (mitochondrial fraction; dose dependent also with purified ABCB6-flag)
Assay type: binding

C[C@H]1CC[C@]2(NC1)O[C@H]1C[C@H]3[C@@H]4CC[C@H]5C[C@@H](O[C@@H]6O[C@H](CO)[C@H](O[C@@H]7O[C@H](CO)[C@@H](O)[C@H](O[C@@H]8OC[C@@H](O)[C@H](O)[C@H]8O)[C@H]7O[C@@H]7O[C@H](CO)[C@@H](O)[C@H](O)[C@H]7O)[C@H](O)[C@H]6O)CC[C@]5(C)[C@H]4CC[C@]3(C)[C@H]1[C@@H]2C [THC, tomatine hydrochloride]
inhibition at 5 µM: > 50%

Reference: publication PMC3393737 (PLoS ONE, 2012)
